For this assay, the target named is T1, PD brain-derived alpha-synuclein aggregates (Homo sapiens, UniProt P37840).
T1 construct: from tissue; host or cells: human PD donor brain tissue, sarkosyl-insoluble fraction
Put plainly: Micro-radiobinding competition assay for the determination of binding affinity. The note with it: for Ki: compound concentrations 0.05 nM to 2 μM, nonlinear regression, one site model. As to the method: The procedure was adapted from the protocol described in Spillantini et al., 1998. Frozen tissue blocks from PD donors were thawed on ice and homogenized using a glass dounce homogenizer. The homogenate was then centrifuged at 11,000×g (12,700 RPM) in an ultracentrifuge (Beckman, XL100K) for 20 minutes at 4° C. using a pre-cooled 70.1 rotor (Beckman, 342184). Pellets were resuspended in extraction buffer [10 mM Tris —HCl PH 7.4, 10% sucrose, 0.85 mM NaCl, 1% protease inhibitor (Calbiochem 539131), 1 mM EGTA, 1% phosphatase inhibitor (Sigma P5726 and P0044)] and centrifuged at 15,000×g (14,800 RPM, a 70.1 Ti rotor) for 20 minutes at 4° C. Pellets were discarded and sarkosyl (20% stock solution, Sigma L7414) was added to the supernatants to a final concentration of 1% at room temperature for one hour. This solution was then centrifuged at 100,000×g (38,000 RPM, 70.1 Ti rotor) for one hour at 4° C. Pellets containing enriched alpha-synuclein aggregates were resuspended in PBS and stored at −80° C. until use.
PD brain-derived alpha-synuclein aggregates were spotted onto microarray slides. The slides were incubated with tritiated reference alpha-synuclein ligand at 6 nM, 20 nM or 30 nM and the example compounds (non-radiolabelled) at 1 μM and 100 nM. In some cases, the non-radiolabelled example compounds were further assessed for a range of different concentrations, varying from 0.05 nM to 2 μM. After incubation, slides were washed and scanned by a real-time autoradiography system (BeaQuant, ai4R). Quantification of the signal was performed by using the Beamage image analysis software (ai4R). Non-specific signal was determined with an excess of non-radiolabelled reference alpha-synuclein ligand (2 μM) and specific binding was calculated by subtracting the non-specific signal from the total signal. Competition was calculated as percent, where 0% was defined as the specific binding in the presence of vehicle and 100% as the values obtained in the presence of excess of the non-radiolabelled reference alpha-synuclein ligand. Ki values were calculated in GraphPad Prism7 by applying a nonlinear regression curve fit using a one site, specific binding model. All measurements were performed with at least two technical replicates. For compounds tested in more than one experiment, the mean of the replicates or Ki values in independent experiments is reported.
Results: Example compounds were assessed for their potency to compete with the binding of a tritiated reference alpha-synuclein ligand to PD patient brain-derived alpha-synuclein aggregates. Results of the micro-radiobinding competition assay for the example compounds tested are shown in Table 2 as: % competition at 1 μM and 100 nM.

Where [1] appears, read: 100 nM non-radiolabelled example compound, competition over tritiated reference alpha-synuclein ligand (6 nM, 20 nM or 30 nM).
[2] abbreviates: 1 μM non-radiolabelled example compound, competition over tritiated reference alpha-synuclein ligand (6 nM, 20 nM or 30 nM).

Where a name gives a salt, the structure may show the parent alone.

We go through 20 molecules from patent US20250034149A1, “DIHYDROPYRROLO[3,4C]-PYRAZOLE DERIVATIVES AND THEIR USE IN DIAGNOSIS” (AC IMMUNE SA, priority 2021, published 2025).

In the case of `Cc1ncc(N2Cc3cn(-c4ccc(OCCF)nc4)nc3C2=O)s1` [Example 20, 2-(6-(2-fluoroethoxy)pyridin-3-yl)-5-(2-methylthiazol-5-yl)-4,5-dihydro-pyrrolo[3,4-c]pyrazol-6(2H)-one], the inhibition (commonly the relative decrease from the control value, in per cent) at 0.1 µM under setting [1] amounted to 55%. For the same molecule, the inhibition at 1 µM under setting [2] was 86%.

Turning to `Cc1ccc(N2Cc3cn(-c4ccc(N5CCC(F)C5)nc4)nc3C2=O)cn1` (stereo in doubt) [Example 13, 2-{6-[(3S)-3-fluoropyrrolidin-1-yl]pyridin-3-yl}-5-(6-methylpyridin-3-yl)-2H,4H,5H,6H-pyrrolo[3,4-c]pyrazol-6-one hydrochloride], the “Micro-radiobinding competition assay Competition at 100 nM (%)” value under setting [1] was 37%. Moreover, the “Micro-radiobinding competition assay Competition at 1 μM (%)” value (1 μM non-radiolabelled example compound, competition over tritiated reference alpha-synuclein ligand (6 nM, 20 nM or 30 nM), hydrochloride) was 87%.

Consider `O=C1c2nn(-c3ccc(OCCF)nc3)cc2CN1c1cccnc1` [Example 17, 2-(6-(2-fluoroethoxy)pyridin-3-yl)-5-(pyridin-3-yl)-4,5-dihydropyrrolo[3,4-c]pyrazol-6 (2H)-one], for which the affinity, expressed as Ki, was 214 nM. Under setting [1], the inhibition at 0.1 µM amounted to 31%. Besides, under setting [2], the inhibition at 1 µM was determined as 63%.

As to `Cn1cc(N2Cc3cn(-c4ccc(N5CC[C@H](F)C5)nc4)nc3C2=O)cn1` [Example 4, 2-{6-[(3S)-3-fluoropyrrolidin-1-yl]pyridin-3-yl}-5-(1-methyl-1H-pyrazol-4-yl)-2H,4H,5H,6H-pyrrolo[3,4-c]pyrazol-6-one], the inhibition at 0.1 µM under setting [1] came to 28%. Also, under setting [2], the inhibition at 1 µM is 75%.

Take `O=C1c2nn(-c3ccc(N4CC[C@@H](F)C4)nc3)nc2CN1c1cccnc1` [Example 10, 2-{6-[(3R)-3-fluoropyrrolidin-1-yl]pyridin-3-yl}-5-(pyridin-3-yl)-2H,4H,5H,6H-pyrrolo[3,4-d][1,2,3]triazol-4-one]: the Ki (commonly a dissociation constant, usually derived from enzyme kinetics or from competition with a known ligand) is 30 nM. For the same molecule, the inhibition at 0.1 µM under setting [1] came to 74%. For the same molecule, under setting [2], the inhibition at 1 µM was determined as 97%.

Consider `Cc1ncc(N2Cc3cn(-c4ccc(N5CC[C@H](F)C5)nc4)nc3C2=O)s1` [Example 16, (S)-2-(6-(3-fluoropyrrolidin-1-yl)pyridin-3-yl)-5-(2-methylthiazol-5-yl)-4,5-dihydropyrrolo[3,4-c]pyrazol-6(2H)-one], for which the Ki is 40 nM. Moreover, the inhibition at 0.1 µM under setting [1] was 69%. Also, the inhibition at 1 µM under setting [2] is 90%.

For `COc1cncc(N2Cc3cn(-c4ccc(N5CC[C@@H](F)C5)nc4)nc3C2=O)c1` [Example 7, 2-{6-[(3R)-3-fluoropyrrolidin-1-yl]pyridin-3-yl}-5-(5-methoxypyridin-3-yl)-2H,4H,5H,6H-pyrrolo[3,4-c]pyrazol-6-one], the inhibition at 0.1 µM under setting [1] is 10%. In addition, the inhibition at 1 µM under setting [2] was 52%.

`O=C1c2nn(-c3ccc(N4CC[C@H](F)C4)nc3)cc2CN1c1cccnc1` [Example 2, 2-{6-[(3S)-3-fluoropyrrolidin-1-yl]pyridin-3-yl}-5-(pyridin-3-yl)-2H,4H,5H,6H-pyrrolo[3,4-c]pyrazol-6-one] gave a Ki of 115 nM. For the same molecule, the inhibition at 0.1 µM under setting [1] stood at 34%. The inhibition at 1 µM under setting [2] turned out to be 80%.

Consider `Cn1cc(N2Cc3cn(-c4ccc(N5CCCC(F)CC5)nc4)nc3C2=O)cn1` (centres unmarked) [Example 14, 2-(6-(4-fluoroazepan-1-yl)pyridin-3-yl)-5-(1-methyl-1H-pyrazol-4-yl)-4,5-dihydropyrrolo[3,4-c]pyrazol-6(2H)-one hydrochloride], for which, under setting [1], the inhibition at 0.1 µM is 0%. Besides, the inhibition at 1 µM under setting [2] was determined as 66%.

For the molecule `Cn1cc(N2Cc3cn(-c4ccc(N5CC[C@@H](F)C5)nc4)nc3C2=O)cn1` [Example 5, 2-{6-[(3R)-3-fluoropyrrolidin-1-yl]pyridin-3-yl}-5-(1-methyl-1H-pyrazol-4-yl)-2H,4H,5H,6H-pyrrolo[3,4-c]pyrazol-6-one], the inhibition at 0.1 µM under setting [1] amounted to 74%. Further, under setting [2], the inhibition at 1 µM is 101%.

In turn, `O=C1c2nn(-c3ccc(N4CC[C@@H](F)C4)nc3)cc2CN1c1cccnc1` [Example 1, 2-{6-[(3R)-3-fluoropyrrolidin-1-yl]pyridin-3-yl}-5-(pyridin-3-yl)-2H,4H,5H,6H-pyrrolo[3,4-c]pyrazol-6-one] displayed an inhibitory constant (Ki) of 84 nM. For the same molecule, the inhibition at 0.1 µM under setting [1] is 58%. Moreover, the inhibition at 1 µM under setting [2] stood at 86%.

For the molecule `Cn1cc(N2Cc3cn(-c4ccc(N5CC(F)C5)nc4)nc3C2=O)cn1` [Example 3, 2-(6-(3-fluoroazetidin-1-yl)pyridin-3-yl)-5-(1-methyl-1H-pyrazol-4-yl)-4,5-dihydropyrrolo[3,4-c]pyrazol-6(2H)-one], the inhibitory constant (Ki) turned out to be 54 nM. Moreover, under setting [1], the inhibition at 0.1 µM came out at 38%. The inhibition at 1 µM under setting [2] is 89%.

In turn, `Cc1ccc(N2Cc3cn(-c4ccc(N5CC[C@@H](F)C5)nc4)nc3C2=O)cn1` [Example 8, 2-{6-[(3R)-3-fluoropyrrolidin-1-yl]pyridin-3-yl}-5-(6-methylpyridin-3-yl)-2H,4H,5H,6H-pyrrolo[3,4-c]pyrazol-6-one] returned a Ki of 226 nM. In addition, the inhibition at 0.1 µM under setting [1] came to 37%. The inhibition at 1 µM under setting [2] was 71%.

`Cn1cc(N2Cc3cn(-c4ccc(OCCF)nc4)nc3C2=O)cn1` [Example 18, 2-(6-(2-fluoroethoxy)pyridin-3-yl)-5-(1-methyl-1H-pyrazol-4-yl)-4,5-dihydropyrrolo[3,4-c]pyrazol-6(2H)-one] returned a Ki of 78 nM. The inhibition at 0.1 µM under setting [1] stood at 54%. The inhibition at 1 µM under setting [2] came to 81%.

As for `Cc1ncc(N2Cc3cn(-c4ccc(N5CC[C@@H](F)C5)nc4)nc3C2=O)s1` [Example 15, (R)-2-(6-(3-fluoropyrrolidin-1-yl)pyridin-3-yl)-5-(2-methylthiazol-5-yl)-4,5-dihydropyrrolo[3,4-c]pyrazol-6(2H)-one], the inhibition at 0.1 µM under setting [1] was 71%. Further, under setting [2], the inhibition at 1 µM was found to be 92%.

With `Cc1ccc(N2Cc3cn(-c4ccc(N5CC[C@H](F)C5)nc4)nc3C2=O)cn1` [Example 9, 2-{6-[(3S)-3-fluoropyrrolidin-1-yl]pyridin-3-yl}-5-(6-methylpyridin-3-yl)-2H,4H,5H,6H-pyrrolo[3,4-c]pyrazol-6-one], the inhibition at 0.1 µM under setting [1] was determined as 37%. The inhibition at 1 µM under setting [2] is 87%.

`O=C1c2nn(-c3ccc(N4CC[C@@H](F)C4)nc3)cc2CN1c1cncs1` [Example 12, 2-{6-[(3R)-3-fluoropyrrolidin-1-yl]pyridin-3-yl}-5-(1,3-thiazol-5-yl)-2H,4H,5H,6H-pyrrolo[3,4-c]pyrazol-6-one] gave an inhibition constant (Ki) of 52 nM. Besides, the inhibition at 0.1 µM under setting [1] is 64%. The inhibition at 1 µM under setting [2] stood at 94%.

Take `O=C1c2nn(-c3ccc(OCCF)nc3)cc2CN1c1cncs1` [Example 19, 2-(6-(2-fluoroethoxy)pyridin-3-yl)-5-(thiazol-5-yl)-4,5-dihydropyrrolo [3,4-c]pyrazol-6(2H)-one]: the Ki is 86 nM. Under setting [1], the inhibition at 0.1 µM was 46%. Further, under setting [2], the inhibition at 1 µM is 78%.

Consider `COc1cncc(N2Cc3cn(-c4ccc(N5CC[C@H](F)C5)nc4)nc3C2=O)c1` [Example 6, 2-{6-[(3S)-3-fluoropyrrolidin-1-yl]pyridin-3-yl}-5-(5-methoxypyridin-3-yl)-2H,4H,5H,6H-pyrrolo[3,4-c]pyrazol-6-one], for which, under setting [1], the inhibition at 0.1 µM came out at 26%. For the same molecule, the inhibition at 1 µM under setting [2] is 60%.

Consider `O=C1c2nn(-c3ccc(N4CC[C@H](F)C4)nc3)cc2CN1c1cncs1` [Example 11, 2-{6-[(3S)-3-fluoropyrrolidin-1-yl]pyridin-3-yl}-5-(1,3-thiazol-5-yl)-2H,4H,5H,6H-pyrrolo[3,4-c]pyrazol-6-one], for which the inhibition at 0.1 µM under setting [1] was 41%. Besides, the inhibition at 1 µM under setting [2] is 90%.
